Assay [1] has as its target T1, Prostaglandin D2 receptor 2 (Homo sapiens, UniProt Q9Y5Y4).
T1 sequence (Q9Y5Y4 whole entry): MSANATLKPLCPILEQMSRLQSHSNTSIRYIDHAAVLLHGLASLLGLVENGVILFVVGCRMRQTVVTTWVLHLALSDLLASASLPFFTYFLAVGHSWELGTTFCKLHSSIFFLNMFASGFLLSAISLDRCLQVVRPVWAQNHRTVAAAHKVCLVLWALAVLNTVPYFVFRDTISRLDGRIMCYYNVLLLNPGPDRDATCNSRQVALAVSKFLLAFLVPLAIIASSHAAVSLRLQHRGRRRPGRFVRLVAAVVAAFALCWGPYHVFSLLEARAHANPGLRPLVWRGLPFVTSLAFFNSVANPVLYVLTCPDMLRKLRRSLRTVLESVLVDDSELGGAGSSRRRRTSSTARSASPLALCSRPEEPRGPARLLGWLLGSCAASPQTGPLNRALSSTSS
The assay can be described thus: Antagonist activity at human CRTH2 receptor expressed in […] cells assessed as inhibition of beta arrestin translocation by bioluminescence resonance energy transfer assay. It is filed as functional, cell-based.

In assay [2] the target is T1, Prostaglandin D2 receptor 2. The assay can be described thus: Displacement of[3H]PGD2 from human CRTH2 receptor expressed in […] cells. The assay is classed as cell-based.
Assay [3] has as its target T2, Prostaglandin D2 receptor 2 (Homo sapiens) (UniProt Q9Y5Y4).
T2 sequence (whole entry): T1 sequence (Q9Y5Y4 whole entry)
Put plainly: Antagonist activity at human CRTH2 receptor expressed in […] cells assessed as inhibition of beta arrestin translocation by bioluminescence resonance energy transfer assay relative to control. The assay is classed as functional, cell-based.

Molecules are shown by their SMILES. A value given as a limit tells only on which side of the number the result lay.

One may read the IC50 as the concentration needed to halve the response being measured. On to `O=C(O)Cc1sc(C(c2ccccc2)c2ccc(O)cc2)nc1-c1ccc(F)cc1` (stereo unspecified), for which the IC50 in assay [1] is 30 nM; in assay [2] it was 3.4 nM. Besides, the Efficacy in assay [3] was found to be 80%.

Consider `O=C(O)Cc1sc(C(c2ccc(F)cc2)c2ccc(F)cc2)nc1-c1ccnc(F)c1`, for which the results for the 50% inhibitory concentration (IC50) in assay [1] and in assay [2] were 4.7 nM and 0.48 nM, respectively. The Efficacy in assay [3] was determined as 80%.

For `O=C(O)Cc1sc(-c2ccccc2)nc1-c1ccc(Cl)cc1` [FENTIAZAC], the IC50 in assay [1] worked out at 960 nM. In addition, the Efficacy in assay [3] is 50%.

As for `Nc1ccc(-c2nc(C(c3ccc(F)cc3)c3ccc(F)cc3)sc2CC(=O)O)cn1`, the IC50 in assay [1] came to 500 nM; in assay [2], 100 nM. The Efficacy in assay [3] worked out at 60%.

`O=C(O)Cc1sc(C(c2ccc(F)cc2)c2ccc(F)cc2)nc1-c1ccc(F)cc1`: the IC50 was 72 nM in assay [1] and 7.5 nM in assay [2]. For the same compound, in assay [3], the Efficacy was 80%.

With `NS(=O)(=O)c1cccc(-c2nc(C(c3ccc(F)cc3)c3ccc(F)cc3)sc2CC(=O)O)c1`, the values for the IC50 in assay [1] and in assay [2] were 710 nM and 140 nM, respectively. Also, the Efficacy in assay [3] was 55%.

Regarding `CCC(c1ccccc1)c1nc(-c2ccc(Cl)cc2)c(CC(=O)O)s1` (stereo unspecified), the IC50 was greater than 100000 nM in assay [1] and 190 nM in assay [2]. For the same compound, the Efficacy in assay [3] turned out to be 50%.

Regarding `O=C(O)Cc1sc(C(c2ccc(F)cc2)c2ccc(F)cc2)nc1-c1ccnc(N2CCC2)c1`, the IC50 was greater than 100000 nM in assay [1] and 660 nM in assay [2]. Further, the Efficacy in assay [3] is 80%.

`COc1ccc(OC)c(-c2nc(C(c3ccccc3)c3ccccc3)sc2CC(=O)O)c1`: the 50% inhibitory concentration (IC50) in assay [1] is greater than 100000 nM. Besides, the Efficacy in assay [3] stood at 80%.

As to `O=C(O)Cc1sc(C(c2ccc(F)cc2)c2ccc(F)cc2)nc1-c1cc[nH]c(=O)c1`, the IC50 in assay [1] came to 890 nM; in assay [2] it was 68 nM.

For `O=C(O)Cc1sc(C(c2ccc(F)cc2)c2ccc(F)cc2)nc1-c1ccccc1`, the values for the IC50 in assay [1] and in assay [2] were 240 nM and 16 nM, respectively. Also, in assay [3], the Efficacy worked out at 80%.

As for `O=C(O)Cc1sc(C(c2ccccc2)c2ccccc2)nc1-c1ccc(F)c(F)c1`, the results for the IC50 in assay [1] and in assay [2] were 43 nM and 4.1 nM, respectively. In addition, the Efficacy in assay [3] was 80%.

With `O=C(O)Cc1sc(-c2ccc(Oc3ccccc3)cc2)nc1-c1ccc(Cl)cc1`, the IC50 in assay [1] turned out to be 1300 nM. Moreover, the Efficacy in assay [3] is 50%.

Regarding `O=C(O)Cc1sc(C(c2ccc(F)cc2)c2ccc(F)cc2)nc1-c1ccnc(O)c1`, the Efficacy in assay [3] was found to be 60%.

In the case of `O=C(O)Cc1sc(CSc2ccccc2)nc1-c1ccc(Cl)cc1`, the IC50 in assay [1] was 450 nM; in assay [2] it was 250 nM. Also, the Efficacy in assay [3] amounted to 50%.

With `Cn1cc(-c2nc(C(c3ccc(F)cc3)c3ccc(F)cc3)sc2CC(=O)O)cn1`, the IC50 in assay [1] is 3500 nM; in assay [2], 1300 nM. Further, the Efficacy in assay [3] was 80%.

Regarding `O=C(O)Cc1sc(C(c2ccc(F)cc2)c2ccc(F)cc2)nc1-c1cccnc1`, the IC50 stood at 510 nM in assay [1] and 68 nM in assay [2]. In assay [3], the Efficacy worked out at 80%.

As for `O=C(O)Cc1sc(C(c2ccccc2)c2ccccn2)nc1-c1ccc(Cl)cc1` (stereo unspecified), the values for the IC50 in assay [1] and in assay [2] were 1900 nM and 810 nM, respectively. Further, the Efficacy in assay [3] amounted to 55%.

For the compound `CS(=O)(=O)Nc1cccc(-c2nc(C(c3ccc(F)cc3)c3ccc(F)cc3)sc2CC(=O)O)c1`, the IC50 in assay [1] amounted to 370 nM; in assay [2], 40 nM. The Efficacy in assay [3] stood at 80%.

With `O=C(O)Cc1sc(C(c2ccccc2)c2ccccc2)nc1-c1ccc(F)cc1`, the IC50 in assay [1] is 77 nM; in assay [2] it was 8.7 nM. In addition, in assay [3], the Efficacy came out at 80%.

For `O=C(O)Cc1sc(NCc2ccccc2)nc1-c1ccc(Cl)cc1`, the IC50 was determined as 2300 nM in assay [1] and 440 nM in assay [2]. In addition, in assay [3], the Efficacy was found to be 30%.

As for `COc1ccc(C(c2ccccc2)c2nc(-c3ccc(Cl)cc3)c(CC(=O)O)s2)cc1` (stereo unspecified), the half-inhibitory concentration (IC50) in assay [1] is 76 nM; in assay [2], 8.4 nM. The Efficacy in assay [3] worked out at 80%.

Regarding `O=C(O)Cc1sc(C(c2ccc(F)cc2)c2ccc(F)cc2)nc1-c1ccnc(Cl)c1`, the half-maximal inhibitory concentration (IC50) in assay [1] amounted to 39 nM; in assay [2] it was 3.1 nM. The Efficacy in assay [3] amounted to 80%.

As for `O=C(O)Cc1sc(C(c2ccc(F)cc2)c2ccc(F)cc2)nc1-c1cn[nH]c1`, the IC50 came out at 220 nM in assay [1] and 16 nM in assay [2]. Also, the Efficacy in assay [3] was 80%.

Regarding `Cc1cc(-c2nc(C(c3ccc(F)cc3)c3ccc(F)cc3)sc2CC(=O)O)cnc1N`, the IC50 in assay [1] was greater than 100000 nM; in assay [2], 880 nM. Besides, in assay [3], the Efficacy was 80%.

On to `O=C(O)Cc1sc(C2COc3ccccc3O2)nc1-c1ccc(Cl)cc1` (stereo unspecified), for which the IC50 in assay [1] was 2000 nM; in assay [2] it was 500 nM. The Efficacy in assay [3] worked out at 50%.

For `O=C(O)Cc1sc(C(c2ccccc2)c2ccccc2)nc1-c1ccccc1`, the half-maximal inhibitory concentration (IC50) in assay [1] was 370 nM; in assay [2], 570 nM. Further, the Efficacy in assay [3] worked out at 80%.

On to `O=C(O)Cc1sc(Cc2cccc3ccccc23)nc1-c1ccc(Cl)cc1`, for which the IC50 was found to be 570 nM in assay [1] and 41 nM in assay [2]. In assay [3], the Efficacy worked out at 30%.

`O=C(O)Cc1sc(C(c2ccc(F)cc2)c2ccc(F)cc2)nc1-c1cc(F)cc(F)c1`: the IC50 in assay [1] is 340 nM; in assay [2], 35 nM. The Efficacy in assay [3] came out at 80%.

Consider `O=C(O)Cc1sc(C(c2ccccc2)c2ccccc2)nc1-c1cccc(F)c1`, for which the half-inhibitory concentration (IC50) in assay [1] amounted to 29 nM; in assay [2], 2.9 nM. The Efficacy in assay [3] was determined as 80%.

As for `O=C(O)Cc1sc(Nc2ccccc2)nc1-c1ccc(Cl)cc1`, the Efficacy in assay [3] turned out to be 50%.

As to `N#Cc1ccc(-c2nc(C(c3ccc(F)cc3)c3ccc(F)cc3)sc2CC(=O)O)cc1`, the concentration for half-maximal inhibition (IC50) is 1500 nM in assay [1] and 150 nM in assay [2]. Moreover, the Efficacy in assay [3] is 30%.

Consider `O=C(O)Cc1sc(C(c2ccc(F)cc2)c2ccc(F)cc2)nc1-c1ccnc(N2CCCC2)c1`, for which the IC50 in assay [1] was greater than 100000 nM; in assay [2] it was 230 nM. Further, the Efficacy in assay [3] came out at 80%.

On to `CNc1cc(-c2nc(C(c3ccc(F)cc3)c3ccc(F)cc3)sc2CC(=O)O)ccn1`, for which the IC50 in assay [1] is 170 nM; in assay [2], 25 nM. The Efficacy in assay [3] was found to be 80%.

Regarding `O=C(O)Cc1sc(C(c2ccc(F)cc2)c2ccc(F)cc2)nc1-c1ccoc1`, the values for the IC50 in assay [1] and in assay [2] were 130 nM and 14 nM, respectively. Besides, the Efficacy in assay [3] is 80%.

Take `O=C(O)Cc1sc(C(c2ccc(F)cc2)c2ccc(F)cc2)nc1-c1ccc(F)c(F)c1`: the IC50 in assay [1] is 41 nM; in assay [2], 3.5 nM. In addition, the Efficacy in assay [3] was determined as 80%.

For the compound `O=C(O)Cc1sc(Cc2ccccc2)nc1-c1ccc(Cl)cc1`, the Efficacy in assay [3] was 50%.

On to `COc1ccc(C(c2ccc(OC)cc2)c2nc(-c3ccc(F)cc3)c(CC(=O)O)s2)cc1`, for which the IC50 amounted to 31 nM in assay [1] and 3.9 nM in assay [2]. In assay [3], the Efficacy was found to be 80%.

Turning to `O=C(O)Cc1sc(C(c2ccccc2)c2ccc(Cl)cc2)nc1-c1ccc(F)cc1` (stereo unspecified), the half-inhibitory concentration (IC50) was 79 nM in assay [1] and 14 nM in assay [2]. Also, the Efficacy in assay [3] turned out to be 80%.

As to `O=C(O)Cc1sc(C(c2ccc(F)cc2)c2ccc(F)cc2)nc1-c1cc(F)nc(F)c1`, the IC50 is 110 nM in assay [1] and 5.4 nM in assay [2]. In addition, the Efficacy in assay [3] was determined as 80%.

For `CC(=O)N1CCN(c2cc(-c3nc(C(c4ccc(F)cc4)c4ccc(F)cc4)sc3CC(=O)O)ccn2)CC1`, the concentration for half-maximal inhibition (IC50) in assay [1] was greater than 100000 nM; in assay [2], 360 nM. In addition, the Efficacy in assay [3] was 80%.

Consider `COc1ccc(-c2nc(C(c3ccccc3)c3ccccc3)sc2CC(=O)O)cc1`, for which the values for the IC50 in assay [1] and in assay [2] were 910 nM and 370 nM, respectively. For the same compound, in assay [3], the Efficacy worked out at 55%.

Consider `O=C(O)Cc1sc(C(c2ccc(F)cc2)c2ccc(F)cc2)nc1-c1cncc(F)c1`, for which the IC50 in assay [1] came to 300 nM; in assay [2] it was 71 nM. Also, the Efficacy in assay [3] stood at 80%.

Take `O=C(O)Cc1sc(C(c2ccccc2)c2ccccc2)nc1-c1ccc(C(F)(F)F)cc1`: the IC50 is greater than 100000 nM in assay [1] and 1100 nM in assay [2]. In addition, in assay [3], the Efficacy is 80%.

For `CN(C)c1cc(-c2nc(C(c3ccc(F)cc3)c3ccc(F)cc3)sc2CC(=O)O)ccn1`, the IC50 in assay [1] is greater than 100000 nM; in assay [2], 380 nM. Besides, in assay [3], the Efficacy came to 80%.

Consider `O=C(O)Cc1sc(C(c2ccc(F)cc2)c2ccc(F)cc2)nc1-c1ccc(Cl)cc1`, for which the 50% inhibitory concentration (IC50) stood at 180 nM in assay [1] and 9.7 nM in assay [2]. Also, the Efficacy in assay [3] is 80%.

Consider `O=C(O)Cc1sc(NC(=O)c2ccccc2)nc1-c1ccc(Cl)cc1`, for which the values for the IC50 in assay [1] and in assay [2] were 870 nM and 520 nM, respectively. Further, in assay [3], the Efficacy stood at 50%.

On to `O=C(O)Cc1sc(C(c2ccccc2)c2ccc(F)c(F)c2)nc1-c1ccc(F)cc1` (stereo unspecified), for which the IC50 in assay [1] was determined as 64 nM; in assay [2] it was 10 nM. Moreover, the Efficacy in assay [3] amounted to 80%.

Turning to `O=C(O)Cc1sc(C(Cc2ccccc2)c2ccccc2)nc1-c1ccc(Cl)cc1` (stereo unspecified), the IC50 in assay [1] was 510 nM; in assay [2], 56 nM. In addition, the Efficacy in assay [3] was found to be 50%.

On to `COc1ccc(C(c2ccccn2)c2nc(-c3ccc(Cl)cc3)c(CC(=O)O)s2)cc1` (stereo unspecified), for which the IC50 in assay [1] was found to be 310 nM; in assay [2], 61 nM. In assay [3], the Efficacy was determined as 80%.

Take `O=C(O)Cc1sc(Cc2ccccc2-c2ccccc2)nc1-c1ccc(Cl)cc1`: in assay [3], the Efficacy is 50%.

(Values after ChEMBL document CHEMBL1158509, “Novel selective thiazoleacetic acids as CRTH2 antagonists developed from in silico derived hits. Part 2” (Bioorg Med Chem Lett, 2010).)
